For assay [1], the system named is pre-established BLM-induced skin fibrosis. The settings on record: imatinib at 150 mg/kg orally once daily day 22-42, positive control.
Assay [2] concerns bleomycin (BLM)-induced skin fibrosis model. Conditions: reported in the literature; cited from earlier work.
Assay [3] relates to dermal fibroblasts from healthy donors. Kind of assay: TGF-β-induced human fibroblast activation, healthy donors. The format is cell-based. Conditions: concentration of 1000 nmol/L; TGF-β 10 ng/mL, 24 hours. The source says: (§1) Full-thickness skin biopsies were obtained from clinically involved skin of patients affected by dcSSc, who were recruited from the Systemic sclerosis clinic within the Leeds Institute of Rheumatic and Musculoskeletal Medicine (UK). Control skin samples were from healthy donors. All patients with dcSSc and healthy donors provided written informed consent through the stratification for risk of progression in systemic sclerosis (STRIKE SSC), which had been approved by the North-East Research Ethic committee. Patients with SSc fulfilled the 2013 ACR/EULAR classification criteria for SSc and were classified as having dcSSc according to the LeRoy and Medsger criteria.
Dermal fibroblasts were isolated from the skin biopsy samples of healthy donors and SSc patients. The skin biopsy samples were minced with a scalpel, placed in plastic culture dishes and covered with Dulbecco's Modified Eagle Medium (DMEM) with 4.5 g/L glucose (Thermo Fisher Scientific) supplemented with 20% fetal calf serum (FCS, Thermo Fisher Scientific), 1% penicillin and streptomycin (Merck), and 1 μg/ml of amphotericin (Thermo Fisher Scientific) and cultured at 37° C. in a humidified atmosphere of 5% CO2. Additional growth medium was added after 3 days with no amphotericin. After 7 days, culture medium was replaced with medium containing 10% FCS and subsequently replenished every 2 to 3 days. When a visible outgrowth of cells was obtained, the fibroblasts were passaged. Briefly, cells were incubated with PBS containing 0.1% EDTA for 5 min, and then detached with trypsin-EDTA solution (Merck), and cultured until 70-80% confluent in DMEM (1 g/L glucose) supplemented with 10% FCS and 1% penicillin and streptomycin. After a subsequent passage, primary cells were retrovirally immortalized using human telomerase reverse transcriptase. […]
(§2) Total RNA was extracted using the Zymo quick RNA mini prep kit according to manufacturer's instructions (Zymo Research Corporation). […] Quantitative RT-PCR was performed in triplicates using SYBR Green RT-PCR Mastermix Kit (Thermo Fisher Scientific) and the ABI PRISM 7500 Fast Real Time PCR System (Applied Biosystems). […]
FIGS. 5(A)-5(B) show the effect of Compound A on human fibroblast activation. Dermal fibroblasts from a healthy individual or an SSc patient were grown to confluence, and placed under starvation for 24 hours in a medium supplemented with 1% fetal bovine serum (A: mRNA expression of ACTA2 and COL1A1 in dermal fibroblasts of healthy individuals was measured by real-time PCR, and normalized for the GAPDH expression level. B: mRNA expression of ACTA2 and COL1A1 in dermal fibroblasts of SSc patients was measured for by real-time PCR, and normalized for the GAPDH expression level). Each bar represents the mean±SEM of the measured values from three wells. […]

Assay [4] has as its system dermal fibroblasts from SSc patients. Briefly: TGF-β-induced human fibroblast activation, SSc patients. The format is cell-based. Conditions: concentration of 1000 nmol/L; TGF-β 10 ng/mL, 24 hours.
Description: as §1
Dermal fibroblasts were isolated from the skin biopsy samples of healthy donors and SSc patients. […]
as §2
FIGS. 5(A)-5(B) show the effect of Compound A on human fibroblast activation. […] Each bar represents the mean±SEM of the measured values from three wells. […]

We go through two compounds from patent US12533350B2, “Use of melanocortin-1 receptor agonist” (TANABE PHARMA CORPORATION, priority 2022, dated 2026).

`Cc1ccc(NC(=O)c2ccc(CN3CCN(C)CC3)cc2)cc1Nc1nccc(-c2cccnc2)n1` [imatinib, reference compound]: in assay [1], the “BLM-induced increase of skin thickness” value is given as “improved”, the “BLM-induced increase of αSMA-positive myofibroblasts in the dermis” value is recorded as “improved” and the “BLM-induced loss of dermal white adipose tissue” value is on record as “improved”.
Consider α-MSH [reference compound], for which the skin fibrosis entry in assay [2] was “suppress”. Also, the “TGF-β-induced increase in αSMA mRNA expression” value in assay [3] and in assay [4] was “suppressed” in each case.
